Laboratory results as given in US9340549B2, “Oxazolidinone compounds and derivatives thereof” (priority 2012, dated 2016).
Where two headings read alike, the source gives them in different places.

Assays:
[1] = biological target: 6×HIS-tankyrase 1 (1091-1325) (Homo sapiens (Human), UniProt O95271); assay: biochemical; format: biochemical
[2] = test system: total β-catenin in SW480 colorectal cells; assay: cells; format: cell-based
Method in brief: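 SW480 cells in growth medium (MEM alpha, 10% heat-inactivated FBS, 10 mM HEPES) treated with a 10-point, 3-fold dilution series of TNKS inhibitor for 40–48 h at 37 °C. Lysates run on an MSD sandwich immunoassay for total β-catenin, read by electrochemiluminescence.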

[3] = test system: Axin2 in SW480 cells; assay: cells; format: cell-based; details: read-out: Axin2 384 IF EC50 IP
Description: Using a VPrep, 10 μL of compound/controls was transferred from the compound plate to 60 μL in the cell plate (final 0.5% DMSO, 70 μL). The mixture was incubated for 24 hours at 37° C. at 5% CO2.
The extra media was tapped out. 50 μL of 4% paraformaldehyde (Fisher, AA433689M), 0.1% Triton (Sigma, X100-100 ML) in PBS were added, and the mixture was incubated for 15 minutes at room temperature. […] The extra media was tapped out and to this was added 50 μL of buffer containing Axin2 Antibody (Sigma, SAB1100677-200 µL) at 1:10000 in PBS, 0.1% Tween-20, 1% Normal Goat Serum. The mixture was incubated for 2 hours at room temperature or overnight at 4° C. The cells were then washed twice with PBS, 0.1% Tween-20, and 1% Normal Goat Serum. […] The mixture was then incubated for 30 minutes at room temperature. The cells were then washed twice with PBS, 0.1% Tween-20, and 1% Normal Goat Serum. 50-100 μL PBS was added, and the mixture was covered with a plate seal (Fisher, NC9425162). An ArrayScan (a variation of the compartmental analysis protocol was optimized) was used to scan the plates, and data was analyzed using MEAN_RingSpotAvgIntenCh2). The Axin2 accumulation POC was calculated, and the EC50 was determined using Genedata Screener software to report Axin2 activity.

[4] = […] enzyme, 400 nM NAD, 60 minutes at room temperature, read-out: TNKS1 IP IC50
[5] = Homo sapiens, SW480 cells, 40 to 48 hours, top concentration 10 μM, read-out: SW480-Total β-Catenin IC50 IP
[6] = Homo sapiens, SW480, 24 h, SW480 cells, 24 hours
[7] = Homo sapiens, SW480, read-out: SW480-Total β-Catenin IC50 IP
[8] = 0.25 nM enzyme, 400 nM NAD, 60 minutes at room temperature, read-out: TNKS1 IP IC50

Chain of 6×HIS-tankyrase 1 (1091-1325) (O95271 1091-1325): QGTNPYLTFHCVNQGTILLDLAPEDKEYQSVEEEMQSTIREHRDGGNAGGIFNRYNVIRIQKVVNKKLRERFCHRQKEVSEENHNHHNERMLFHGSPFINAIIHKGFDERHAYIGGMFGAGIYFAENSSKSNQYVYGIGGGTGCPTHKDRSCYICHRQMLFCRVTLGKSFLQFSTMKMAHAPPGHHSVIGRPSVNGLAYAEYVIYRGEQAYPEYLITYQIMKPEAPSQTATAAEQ

Compound	IC50 [1, 4]	IC50 [2, 5]	EC50 [3, 6]	other results
(S)-5,5-dimethyl-3-(4-(2-oxo-1H-imidazo[4,5-c]pyridin-3(2H)-yl)phenyl)-4-phenyloxazolidin-2-one [Example 15]	0.105 µM	–	–	IC50 ([2]; SW480 cells, 40 to 48 hours, top concentration 10 μM, read-out: SW480-Total β-Catenin IC50 IP): 0.992 µM; EC50 ([3]; SW480 cells, 24 hours): 4.15 µM
CC1(C)OC(=O)N(c2ccc(-c3cnc(N)nc3)cc2)[C@H]1c1ccccc1 [Example 70, (S)-3-(4-(2-aminopyrimidin-5-yl)phenyl)-5,5-dimethyl-4-phenyloxazolidin-2-one]	1.49 µM	> 10 µM	> 25 µM	–
CC1(c2ccccc2)CN([C@H]2CC[C@H](n3c(=O)[nH]c4ccccc43)CC2)C(=O)O1 (stereo partly drawn) [Example 34, (R+S) 5-methyl-3-((1r,4r)-4-(2-oxo-2,3-dihydro-1H-benzo[d]imidazol-1-yl)cyclohexyl)-5-phenyloxazolidin-2-one]	0.0428 µM	0.829 µM	–	EC50 ([3]; Homo sapiens, SW480 cells, 24 hours): 2.72 µM
CC1(C)OC(=O)N(c2ccc(C(=O)Nc3cccc4cccnc34)cc2)[C@H]1c1cccc(F)c1 [Example 110, (S)-4-(4-(3-fluorophenyl)-5,5-dimethyl-2-oxooxazolidin-3-yl)-N-(quinolin-8-yl)benzamide]	0.193 µM	1.69 µM	2.7 µM	–
CC1(C)OC(=O)N([C@@H]2CC=C(c3cc(-c4ncccn4)c[nH]c3=O)CC2)[C@H]1c1ccccc1 (single isomer, unassigned) [Example 5]	0.0241 µM	0.447 µM	0.816 µM	–
C[C@]1(c2ccccc2)CN([C@H]2CC[C@H](n3c(=O)[nH]c4cnccc43)CC2)C(=O)O1 (single isomer, unassigned) [Example 91]	0.00901 µM	3.61 µM	4.43 µM	–
CC1(C)OC(=O)N(c2ccc(-c3nnc4cc(-c5cncnc5)ccn34)cc2)[C@H]1c1ccccc1 [Example 66, (S)-5,5-dimethyl-4-phenyl-3-(4-(7-(pyrimidin-5-yl)-[1,2,4]triazolo[4,3-a]pyridin-3-yl)phenyl)oxazolidin-2-one]	1.97 µM	9.27 µM	> 25 µM	–
CC1(C)OC(=O)N(c2ccc(-n3c(=O)[nH]c4ccccc43)nc2)[C@H]1c1ccccc1 [Example 22, (S)-5,5-dimethyl-3-(6-(2-oxo-2,3-dihydro-1H-benzo[d]imidazol-1-yl)pyridin-3-yl)-4-phenyloxazolidin-2-one]	1.43 µM	> 10 µM	> 25 µM	–
CC1(C)OC(=O)N(c2ccc(C(=O)Nc3cccc4cccnc34)cc2)[C@H]1c1ccncc1 [Example 126, (S)-4-(5,5-dimethyl-2-oxo-4-(pyridin-4-yl)oxazolidin-3-yl)-N-(quinolin-8-yl)benzamide]	0.272 µM	–	4.62 µM	IC50 [2, 7]: 0.761 µM
CC1(C)OC(=O)N([C@H]2CC[C@H](c3cnc4[nH]c(=O)n(-c5ncccn5)c4c3)CC2)[C@H]1c1ccccc1 [Example 98, (S)-5,5-dimethyl-3-((1r,4S)-4-(2-oxo-1-(pyrimidin-2-yl)-2,3-dihydro-1H-imidazo[4,5-b]pyridin-6-yl)cyclohexyl)-4-phenyloxazolidin-2-one]	0.000316 µM	0.0482 µM	0.0357 µM	–
C[C@@]1(c2ccccc2)CN([C@H]2CC[C@H](n3c(=O)[nH]c4cnccc43)CC2)C(=O)O1 (single isomer, unassigned) [Example 90]	0.772 µM	> 10 µM	> 25 µM	–
CC1(C)OC(=O)N(c2ccc(-c3cc(-c4cccnc4)cnc3F)cc2)[C@H]1c1ccccc1 [Example 117, (S)-3-(4-(6-fluoro-[3,3′-bipyridin]-5-yl)phenyl)-5,5-dimethyl-4-phenyloxazolidin-2-one]	0.193 µM	1.05 µM	5.74 µM	–
CC1(C)OC(=O)N([C@H]2CC[C@H](c3cnc(N)c(C4=NCCCN4)c3)CC2)[C@H]1c1ccccc1 [Example 77, (S)-3-((1r,4S)-4-(6-amino-5-(1,4,5,6-tetrahydropyrimidin-2-yl)pyridin-3-yl)cyclohexyl)-5,5-dimethyl-4-phenyloxazolidin-2-one]	1.65 µM	> 10 µM	> 25 µM	–
CC1(C)OC(=O)N([C@H]2CC[C@H](n3c(=O)[nH]c4cc(C#N)ccc43)CC2)[C@H]1c1ccc(F)cc1 [Example 61, 1-((1S,4r)-4-((S)-4-(4-fluorophenyl)-5,5-dimethyl-2-oxooxazolidin-3-yl)cyclohexyl)-2-oxo-2,3-dihydro-1H-benzo[d]imidazole-5-carbonitrile]	0.00342 µM	0.148 µM	0.238 µM	–
CC1(C)OC(=O)N([C@H]2CC[C@H](c3nnc(-c4ccccc4)o3)CC2)C1c1ccccc1 (stereo partly drawn) [Example 84, 5,5-dimethyl-4-phenyl-3-((1r,4r)-4-(5-phenyl-1,3,4-oxadiazol-2-yl)cyclohexyl)oxazolidin-2-one]	0.473 µM	4.94 µM	7.6 µM	–
CC1(C)OC(=O)N([C@H]2CC[C@@H](c3c[nH]c(=O)c(-c4ncccn4)c3)CC2)[C@H]1c1ccccc1 [Example 96, (S)-5,5-Dimethyl-3-((1s,4R)-4-(6-oxo-5-(pyrimidin-2-yl)-1,6-dihydropyridin-3-yl)cyclohexyl)-4-phenyloxazolidin-2-one]	0.511 µM	> 10 µM	> 25 µM	–
CC1(C)OC(=O)N([C@H]2CC[C@H](c3nnc(-c4ccccc4)o3)CC2)[C@@H]1c1ccccc1 [Example 86, (R)-5,5-dimethyl-4-phenyl-3-((1r,4R)-4-(5-phenyl-1,3,4-oxadiazol-2-yl)cyclohexyl)oxazolidin-2-one]	0.0322 µM	> 10 µM	1.66 µM	–
O=C(Nc1cccc2cccnc12)c1ccc(N2C(=O)OC3(CCCC3)C2c2ccccc2)cc1 (stereo not drawn) [Example 45, (R+S) 4-(2-oxo-4-phenyl-1-oxa-3-azaspiro[4.4]nonan-3-yl)-N-(quinolin-8-yl)benzamide]	1.25 µM	–	–	IC50 [2, 7]: > 10 µM; EC50 ([3]; Homo sapiens, SW480, 24 h): > 25 µM
CC1(C)OC(=O)N([C@H]2CC[C@H](c3cc(-c4ncccn4)c[nH]c3=O)CC2)C1c1ccccc1 (mixture of isomers) [Example 7, (+/−)-3-(trans-4-((4S/R)-5,5-Dimethyl-2-oxo-4-phenyl-1,3-oxazolidin-3-yl)cyclohexyl)-5-(2-pyrimidinyl)-2(1H)-pyridinone]	–	–	–	IC50 [1, 8]: 0.0318 µM; IC50 [2, 7]: 0.695 µM; EC50 ([3]; Homo sapiens, SW480, 24 h): 1.46 µM
COc1cccc(C2N(c3ccc(C(=O)Nc4cccc5cccnc45)cc3)C(=O)OC2(C)C)c1 (racemic) [Example 105, (+/−)-(R/S)-4-(4-(3-methoxyphenyl)-5,5-dimethyl-2-oxooxazolidin-3-yl)-N-(quinolin-8-yl)benzamide]	–	3.25 µM	8.93 µM	IC50 [1, 8]: 0.152 µM
CC1(c2ccccc2)CN([C@H]2CC[C@@H](n3c(=O)[nH]c4cc(C#N)ccc43)CC2)C(=O)O1 (stereo partly drawn) [Example 92, 1-((1R,4r)-4-((R+S)-5-methyl-2-oxo-5-phenyloxazolidin-3-yl)cyclohexyl)-2-oxo-2,3-dihydro-1H-benzo[d]imidazole-5-carbonitrile]	0.0049 µM	0.177 µM	0.183 µM	–
CC1(C)OC(=O)N(c2ccc(-c3nnc4cc(C#N)ccn34)cc2)[C@H]1c1ccccc1 [Example 67, (S)-3-(4-(5,5-dimethyl-2-oxo-4-phenyloxazolidin-3-yl)phenyl)-[1,2,4]triazolo[4,3-a]pyridine-7-carbonitrile]	5.23 µM	> 10 µM	> 25 µM	–
CC1(C)OC(=O)N([C@H]2CC=C(c3cc(-c4ncccn4)c[nH]c3=O)CC2)[C@H]1c1ccccc1 (single isomer, unassigned) [Example 6]	0.0468 µM	0.585 µM	2.66 µM	–
CC1(C)OC(=O)N([C@H]2CC[C@H](n3c(=O)oc4cccnc43)CC2)[C@H]1c1ccccc1 [Example 49, 3-(trans-4-((4S)-5,5-dimethyl-2-oxo-4-phenyl-1,3-oxazolidin-3-yl)cyclohexyl)[1,3]oxazolo[4,5-b]pyridin-2(3H)-one]	–	0.949 µM	> 25 µM	IC50 [1]: 3.46 µM
CC1(C)OC(=O)N([C@H]2CC[C@H](n3c(=O)[nH]c4cnc(C#N)cc43)CC2)[C@H]1c1ccccc1 [Example 54, 1-((1S,4r)-4-((S)-5,5-dimethyl-2-oxo-4-phenyloxazolidin-3-yl)cyclohexyl)-2-oxo-2,3-dihydro-1H-imidazo[4,5-c]pyridine-6-carbonitrile]	0.00742 µM	0.605 µM	0.725 µM	–
